Results published in ChEMBL document CHEMBL1201862, “PubChem BioAssay data set” (2004).
Activity calls are given as the source filed them.

Assays:
[1] = target: T1, Polyadenylate-binding protein 1 (Homo sapiens, UniProt P11940); assay: PABP1 MLLE–PAM2 interaction inhibitors, dose response, miRNA deadenylation inhibitor project, biochemical, fluorescence polarization, Cy5-PAM2 peptide, secondary (AID 602260); format: functional; conditions: read-out: IC50_Mean
[2] = target: T1, Polyadenylate-binding protein 1; assay: PABP1 MLLE–PAM2 binding inhibitor potency, dose response, biochemical, fluorescence polarization, FITC-PAM2 peptide (AID 602259); format: functional; conditions: read-out: IC50_Mean
[3] = target: T2, Replicative DNA helicase DnaB (Mycobacterium tuberculosis, UniProt P9WMR3); assay: DnaB intein splicing inhibitors, dose response, biochemical, cell-free fluorescence (AID 449749); format: functional
T2 sequence (P9WMR3 whole entry): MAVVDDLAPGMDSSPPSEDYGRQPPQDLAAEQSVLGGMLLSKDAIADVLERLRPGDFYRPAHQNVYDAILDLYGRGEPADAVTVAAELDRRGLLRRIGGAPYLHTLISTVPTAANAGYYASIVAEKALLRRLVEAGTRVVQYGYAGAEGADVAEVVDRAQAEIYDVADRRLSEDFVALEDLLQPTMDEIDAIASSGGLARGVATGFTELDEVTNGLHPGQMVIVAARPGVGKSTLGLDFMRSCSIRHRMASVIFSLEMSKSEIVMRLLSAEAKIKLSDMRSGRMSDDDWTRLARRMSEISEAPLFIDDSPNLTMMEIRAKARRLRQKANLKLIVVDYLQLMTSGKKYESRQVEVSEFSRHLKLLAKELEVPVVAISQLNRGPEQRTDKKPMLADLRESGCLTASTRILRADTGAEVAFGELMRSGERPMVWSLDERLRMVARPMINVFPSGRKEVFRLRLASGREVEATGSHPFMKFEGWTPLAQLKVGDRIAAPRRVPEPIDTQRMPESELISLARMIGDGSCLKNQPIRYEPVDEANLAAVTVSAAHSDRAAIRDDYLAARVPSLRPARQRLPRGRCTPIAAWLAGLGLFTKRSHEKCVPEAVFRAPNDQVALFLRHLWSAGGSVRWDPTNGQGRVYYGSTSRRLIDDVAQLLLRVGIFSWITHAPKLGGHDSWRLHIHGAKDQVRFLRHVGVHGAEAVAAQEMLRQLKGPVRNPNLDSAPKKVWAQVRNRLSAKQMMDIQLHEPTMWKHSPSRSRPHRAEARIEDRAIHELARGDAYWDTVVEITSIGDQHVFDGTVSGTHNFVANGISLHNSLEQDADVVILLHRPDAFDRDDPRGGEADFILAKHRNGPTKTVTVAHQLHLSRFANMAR

[4] = tested on: Streptococcus sp. 'group A'; assay: growth inhibition of control SK(-) GAS strain, dose response, counter-screen for streptokinase expression inhibitor project, luminescence, kanamycin, BacTiterGlo, confirmation (AID 1900); format: functional, organism-based
[5] = target: T3, Protein RecA (Mycobacterium tuberculosis, UniProt P9WHJ3); assay: Fluorescence Cell-Free Homogeneous Dose Retest to Identify Inhibitors of RecA-Intein Splicing Activity. [Related pubchem assays (depositor defined):AID2097, AID2223, AID489010, AID492950]; format: functional
T3 sequence (P9WHJ3 whole entry): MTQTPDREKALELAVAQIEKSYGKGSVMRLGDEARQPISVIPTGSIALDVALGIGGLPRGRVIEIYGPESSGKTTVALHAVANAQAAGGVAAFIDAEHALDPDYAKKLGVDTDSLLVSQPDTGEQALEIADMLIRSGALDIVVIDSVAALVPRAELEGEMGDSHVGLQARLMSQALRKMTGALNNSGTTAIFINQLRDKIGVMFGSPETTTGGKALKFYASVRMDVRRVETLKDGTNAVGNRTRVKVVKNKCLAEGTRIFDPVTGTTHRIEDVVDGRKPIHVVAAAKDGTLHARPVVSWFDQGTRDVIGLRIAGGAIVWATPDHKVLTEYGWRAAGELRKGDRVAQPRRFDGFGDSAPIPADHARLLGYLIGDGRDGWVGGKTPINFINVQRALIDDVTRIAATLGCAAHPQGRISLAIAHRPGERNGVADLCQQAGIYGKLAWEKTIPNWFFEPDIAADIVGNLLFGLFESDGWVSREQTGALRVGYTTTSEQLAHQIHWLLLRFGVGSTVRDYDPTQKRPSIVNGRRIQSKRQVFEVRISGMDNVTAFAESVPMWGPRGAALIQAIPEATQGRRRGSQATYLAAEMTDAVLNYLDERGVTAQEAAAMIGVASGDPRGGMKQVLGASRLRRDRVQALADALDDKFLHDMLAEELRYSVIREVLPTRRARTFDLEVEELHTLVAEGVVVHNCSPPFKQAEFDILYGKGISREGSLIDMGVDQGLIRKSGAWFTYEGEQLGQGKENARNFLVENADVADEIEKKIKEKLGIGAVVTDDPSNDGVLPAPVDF

[6] = microbe, parasite or virus in culture; format: functional; conditions: Mycobacterium tuberculosis
[7] = target: T4, Streptokinase A (Streptococcus pyogenes serotype M1, UniProt P10520); assay: S. pyogenes streptokinase expression inhibitors, potency, dose response, plasminogen activation absorbance, OD405 (AID 1914); format: functional, Streptococcus pyogenes M1 GAS;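 note: secreted streptokinase activity via plasminogen activation per viability signal from cell pellet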
T4 sequence (P10520 whole entry): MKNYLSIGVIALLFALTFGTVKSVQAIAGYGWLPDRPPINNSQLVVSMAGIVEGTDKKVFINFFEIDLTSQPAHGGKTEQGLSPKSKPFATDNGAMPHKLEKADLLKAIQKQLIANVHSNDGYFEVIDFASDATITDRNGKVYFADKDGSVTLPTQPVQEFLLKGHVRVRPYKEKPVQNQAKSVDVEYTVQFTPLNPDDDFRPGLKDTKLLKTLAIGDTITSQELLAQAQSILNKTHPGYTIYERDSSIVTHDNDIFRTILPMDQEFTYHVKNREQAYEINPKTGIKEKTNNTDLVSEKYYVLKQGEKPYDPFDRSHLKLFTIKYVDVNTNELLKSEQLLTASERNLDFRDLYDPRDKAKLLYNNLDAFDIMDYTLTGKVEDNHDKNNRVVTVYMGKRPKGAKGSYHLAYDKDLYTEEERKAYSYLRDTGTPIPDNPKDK

[8] = tested on: Streptococcus; assay: Group A Streptococcus viability loss, dose response, counter-screen for streptokinase expression inhibitor project, luminescence, BacTiterGlo (AID 1915); format: functional, organism-based;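 note: potency for reduction of bacterial viability or growth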
[9] = cells; format: functional
[10] = tested on: H9c2; assay: cells; format: functional, cell-based; conditions: Rattus norvegicus, H9c2, Myocardium;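 note: confirmatory concentration-response retest of ultra-high-throughput screening hits for modulation of myocardial damage; cell death induced by hydrogen peroxide oxidative stress; compound pretreatment for 60 min then peroxide exposure for 2 h; potency is for protecting the cells against peroxide damage rather than for killing them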
[11] = target: T5, RNA-binding protein pos-1 (Caenorhabditis elegans, UniProt G5EF15); assay: inhibitors of POS-1/mex-3 RNA binding, dose response, biochemical, fluorescence polarization (AID 1964);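 note: purified POS-1 fused to maltose binding protein made in E. coli; potency of compounds blocking POS-1 binding to fluorescent RNA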
T5 sequence (G5EF15 whole entry): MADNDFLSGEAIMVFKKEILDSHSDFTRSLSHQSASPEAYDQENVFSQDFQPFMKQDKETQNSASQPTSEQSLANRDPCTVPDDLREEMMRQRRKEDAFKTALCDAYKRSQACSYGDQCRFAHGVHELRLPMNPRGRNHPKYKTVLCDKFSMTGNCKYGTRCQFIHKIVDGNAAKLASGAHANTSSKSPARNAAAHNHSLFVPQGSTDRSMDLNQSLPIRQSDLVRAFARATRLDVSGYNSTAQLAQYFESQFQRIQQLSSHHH

[12] = target: T6, Zinc finger protein mex-5 (Caenorhabditis elegans, UniProt Q9XUB2); assay: MEX-5/TCR-2 RNA interaction inhibitors, dose response, biochemical, C. elegans, fluorescence polarization (AID 1960)
T6 sequence (Q9XUB2 whole entry): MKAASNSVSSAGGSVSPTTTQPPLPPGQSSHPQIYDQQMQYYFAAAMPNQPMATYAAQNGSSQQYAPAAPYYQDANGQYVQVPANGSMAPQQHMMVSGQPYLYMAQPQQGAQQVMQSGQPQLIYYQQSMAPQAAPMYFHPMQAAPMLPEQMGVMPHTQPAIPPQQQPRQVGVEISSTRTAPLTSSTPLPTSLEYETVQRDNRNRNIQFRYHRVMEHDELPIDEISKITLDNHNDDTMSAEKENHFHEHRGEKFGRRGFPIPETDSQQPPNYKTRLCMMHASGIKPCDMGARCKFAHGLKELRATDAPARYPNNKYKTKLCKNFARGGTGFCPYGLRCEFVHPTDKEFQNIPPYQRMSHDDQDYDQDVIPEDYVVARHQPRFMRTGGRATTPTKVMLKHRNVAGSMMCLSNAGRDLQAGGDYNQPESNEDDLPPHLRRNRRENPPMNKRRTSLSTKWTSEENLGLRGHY

[13] = target: Glyceraldehyde-3-phosphate dehydrogenase (Homo sapiens, UniProt P04406)
Chain of Glyceraldehyde-3-phosphate dehydrogenase (P04406 whole entry): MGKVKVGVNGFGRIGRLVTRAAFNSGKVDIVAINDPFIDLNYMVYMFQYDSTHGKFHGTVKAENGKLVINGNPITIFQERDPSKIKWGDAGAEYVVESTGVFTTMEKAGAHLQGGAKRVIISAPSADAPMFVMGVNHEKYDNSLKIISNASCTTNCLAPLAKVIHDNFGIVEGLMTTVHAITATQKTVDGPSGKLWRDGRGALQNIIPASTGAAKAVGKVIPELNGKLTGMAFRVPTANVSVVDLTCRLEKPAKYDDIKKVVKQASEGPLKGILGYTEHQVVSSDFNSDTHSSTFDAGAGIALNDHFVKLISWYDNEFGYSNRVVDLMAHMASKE

[14] = target: Large T antigen (Simian virus 40, UniProt P03070); format: functional, Betapolyomavirus macacae;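 note: Confirmatory-stage PubChem screen for compounds that inhibit SV40 T antigen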
Chain of Large T antigen (P03070 whole entry): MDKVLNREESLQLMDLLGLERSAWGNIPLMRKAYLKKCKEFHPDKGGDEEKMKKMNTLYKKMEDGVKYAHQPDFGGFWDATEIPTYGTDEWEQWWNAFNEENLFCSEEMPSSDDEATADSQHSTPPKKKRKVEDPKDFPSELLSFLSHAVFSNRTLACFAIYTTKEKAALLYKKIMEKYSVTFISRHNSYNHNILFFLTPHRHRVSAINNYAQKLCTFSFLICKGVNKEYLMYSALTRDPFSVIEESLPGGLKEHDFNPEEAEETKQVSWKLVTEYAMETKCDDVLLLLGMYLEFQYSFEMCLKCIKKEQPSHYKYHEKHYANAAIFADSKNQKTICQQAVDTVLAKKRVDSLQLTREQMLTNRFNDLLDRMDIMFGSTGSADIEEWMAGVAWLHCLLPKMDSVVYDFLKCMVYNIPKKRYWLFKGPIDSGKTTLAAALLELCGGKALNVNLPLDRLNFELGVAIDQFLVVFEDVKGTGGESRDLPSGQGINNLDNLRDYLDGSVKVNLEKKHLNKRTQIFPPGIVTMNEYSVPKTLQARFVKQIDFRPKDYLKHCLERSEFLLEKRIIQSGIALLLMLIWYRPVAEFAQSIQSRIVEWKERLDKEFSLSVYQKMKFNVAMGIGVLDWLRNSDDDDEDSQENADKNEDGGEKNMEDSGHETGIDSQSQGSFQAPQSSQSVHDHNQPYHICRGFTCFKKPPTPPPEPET

[15] = target: T7, Corticotropin-releasing factor receptor 2/Corticotropin-releasing factor-binding protein (Homo sapiens, UniProt P24387+Q13324); assay: activators of CRF receptor 2 with binding protein – uHTS hits, confirmation (AID 602473); format: functional; conditions: read-out: EC50_Mean
T7 sequence (Q13324 whole entry): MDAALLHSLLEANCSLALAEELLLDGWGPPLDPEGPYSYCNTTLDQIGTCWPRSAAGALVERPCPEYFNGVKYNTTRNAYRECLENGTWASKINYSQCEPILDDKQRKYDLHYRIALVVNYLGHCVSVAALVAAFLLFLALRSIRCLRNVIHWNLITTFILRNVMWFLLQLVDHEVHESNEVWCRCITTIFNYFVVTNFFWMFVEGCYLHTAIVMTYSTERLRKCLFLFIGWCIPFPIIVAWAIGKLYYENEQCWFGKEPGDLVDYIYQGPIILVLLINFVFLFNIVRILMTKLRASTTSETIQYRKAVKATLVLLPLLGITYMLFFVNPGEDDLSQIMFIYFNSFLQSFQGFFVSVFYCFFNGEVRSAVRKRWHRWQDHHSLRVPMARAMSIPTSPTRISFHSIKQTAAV
T7 sequence (P24387 whole entry): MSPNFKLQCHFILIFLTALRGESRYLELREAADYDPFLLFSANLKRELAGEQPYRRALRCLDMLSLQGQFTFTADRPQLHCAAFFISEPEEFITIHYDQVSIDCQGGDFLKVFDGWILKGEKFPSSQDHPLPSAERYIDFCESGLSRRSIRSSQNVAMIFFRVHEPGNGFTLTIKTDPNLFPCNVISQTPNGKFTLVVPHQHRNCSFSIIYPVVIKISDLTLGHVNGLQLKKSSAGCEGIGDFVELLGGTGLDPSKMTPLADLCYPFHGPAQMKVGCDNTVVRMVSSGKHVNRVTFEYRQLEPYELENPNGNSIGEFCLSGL

[16] = target: T7, Corticotropin-releasing factor receptor 2/Corticotropin-releasing factor-binding protein; assay: Dose Response confirmation of uHTS hits for small molecule antagonists of the CRF-binding protein and CRF-R2 receptor complex.; format: functional; conditions: read-out: IC50_Mean

T1 sequence (P11940 whole entry): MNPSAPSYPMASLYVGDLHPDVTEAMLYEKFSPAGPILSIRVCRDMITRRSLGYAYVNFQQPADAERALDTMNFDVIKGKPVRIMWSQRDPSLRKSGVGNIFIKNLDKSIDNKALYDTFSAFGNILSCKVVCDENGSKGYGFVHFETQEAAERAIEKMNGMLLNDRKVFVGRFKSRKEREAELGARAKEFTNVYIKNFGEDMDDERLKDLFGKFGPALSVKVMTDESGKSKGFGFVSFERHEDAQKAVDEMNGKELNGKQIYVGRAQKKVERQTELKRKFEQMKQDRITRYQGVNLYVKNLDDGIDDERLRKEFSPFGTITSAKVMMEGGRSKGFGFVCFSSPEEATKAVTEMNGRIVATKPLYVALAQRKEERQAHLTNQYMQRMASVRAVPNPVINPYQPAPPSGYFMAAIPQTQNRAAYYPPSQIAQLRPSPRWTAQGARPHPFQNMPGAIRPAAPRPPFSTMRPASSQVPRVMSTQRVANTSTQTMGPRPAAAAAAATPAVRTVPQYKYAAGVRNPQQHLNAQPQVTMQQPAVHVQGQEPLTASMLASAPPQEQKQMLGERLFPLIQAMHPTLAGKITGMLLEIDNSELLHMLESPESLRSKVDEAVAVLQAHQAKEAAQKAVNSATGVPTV

O=C(NC(=S)N1CCCCCC1)c1ccccc1Cl
IC50 [1]: > 66 µM (inactive)
IC50 [2]: > 66 µM (inactive)

COc1ccc(-c2oc(NC(=O)CCl)c(C#N)c2-c2ccc(OC)cc2)cc1
AC50 [3]: 0.416 µM (active)
EC50 [4]: 1.18 µM (active)
EC50 [5]: 0.67 µM (active)
CC50 [6]: 10.1 µM (active)
EC50 [7]: 1.16 µM (active)
EC50 [8]: > 150 µM (not active)

COc1ccc(C(=O)COC(=O)c2ccc([N+](=O)[O-])s2)cc1OC
IC50 [9]: 10.6 µM (active)
IC50 [10]: > 79 µM (inactive)

COC(=O)c1ccc(C(C(=O)NCc2ccccc2)N(Cc2cccs2)C(=O)c2cnccn2)cc1 (configuration not stated)
IC50 [10]: 8.82 µM (active)

CCC(CC)C(=O)Nc1cc(C)c2c(=O)oc3ccccc3c2n1
IC50 [10]: > 79 µM (inactive)

CCc1ccc(N2C(=O)NC(=O)/C(=C\c3cc(C)n(-c4cc(C(=O)O)cc(C(=O)O)c4)c3C)C2=O)cc1
EC50 [11]: > 300 µM (not active)
EC50 [12]: > 300 µM (not active)

CCC(ONc1ccccc1C(F)(F)F)(C(=O)NN(C)C)c1ccccc1 (configuration not stated)
IC50 [10]: 33.3 µM (inactive)

CCOC(=O)C1CCN(c2cc3c(cc2NC(=O)c2ccccc2Cl)n(C)c(=O)n3C)CC1
IC50 [10]: > 79 µM (inactive)

Cc1ccc(S(=O)(=O)Nc2ccc(O)c(C(=O)O)c2)c(C)c1
IC50 [13]: > 100 µM (not active)

O=C(CC1CCCCC1)Nc1nc[nH]n1
IC50 [13]: > 10 µM (inconclusive)

O=C(O)CN1C(=O)C2C3CC(C2C1=O)C1C(c2ccc(F)cc2)c2sc(O)nc2SC31 (configuration not stated)
IC50 [1]: > 66 µM (inactive)
IC50 [2]: > 66 µM (inactive)

Cc1ccc2cc3c(N)[nH]nc3nc2c1
IC50 [14]: 13.1 µM (active)

CC1CCN(C(=O)CSc2nncn2-c2ccccn2)CC1
IC50 [1]: > 66 µM (inactive)
IC50 [2]: > 66 µM (inactive)

CC(C)C1Nc2ccc(S(N)(=O)=O)cc2C2C=CCC21 (configuration not stated)
EC50 [11]: 52.4 µM (active)
EC50 [12]: 30.4 µM (active)

COc1ccc(OCC(O)Cn2c(Br)nc3c2c(=O)[nH]c(=O)n3C)cc1 (configuration not stated)
IC50 [10]: 16.4 µM (active)

Cc1cc2cc(CNC(=O)Cc3cccs3)ccc2n1C
IC50 [1]: > 66 µM (inactive)
IC50 [2]: > 66 µM (inactive)

CC(C)OCCCNC(=O)CCC(=O)NNc1nc2ccccc2c2nc(-c3ccccc3)nn12
IC50 [10]: 13.5 µM (active)

NC(=S)c1cnn2c(-c3cccc(C(F)(F)F)c3)ccnc12
IC50 [1]: > 66 µM (inactive)
IC50 [2]: > 66 µM (inactive)

O=C(COc1ccc(Cl)cc1)NCc1nnc(O)c2ccccc12
IC50 [10]: > 79 µM (inactive)

Cc1nnc(Nc2ccc(O)cc2)nc1O
IC50 [14]: 33 µM (active)

CN(C)/C=C/C(=O)c1cnc(-c2ccccc2Cl)s1
EC50 [11]: > 300 µM (not active)
EC50 [12]: > 300 µM (not active)

Cc1ccccc1NC(=O)CSC(=O)c1ccccc1
IC50 [1]: > 66 µM (inactive)
IC50 [2]: > 66 µM (inactive)

C/C(=N/NS(=O)(=O)c1cccc([N+](=O)[O-])c1)c1c[nH]c2ccccc12
IC50 [14]: 17 µM (active)

N#CC1=C(N)OC2=C(C(=O)CC(c3ccccc3)C2)C1c1ccc2c(c1)OCO2 (configuration not stated)
EC50 [15]: > 53 µM (inactive)
EC50 [11]: > 300 µM (not active)
EC50 [12]: > 300 µM (not active)
IC50 [16]: > 47.1 µM (inactive)
